Data taken from patent publication US20050255582A1, “Surface modifying composition” (Arch Development Corporation:, priority 2000, published 2005).

Key:
Format in all cases: binding
Insulin = assay: SPR adsorption of protein on monolayers: insulin; conditions: protein 0.5 mg/ml in PBS pH 7.6, SAM on gold
Description: (§1) Two experimental procedures were used to evaluate the monolayers as inert surfaces. Surface plasmon resonance (SPR) spectroscopy measures the adsorption of protein to the monolayer. All SPR experiments were performed on a BIAcore 1000 instrument. Substrates were glued into plastic BIACore cassettes with a two-part epoxy (DEVCON). Phosphate-buffered saline (PBS; 10 mM phosphate, 150 mM sodium chloride, pH 7.6) was degassed under vacuum and all protein solutions were filtered through 0.45-μm filters before use. SPR is well suited for characterization of protein adsorption because it measures adsorption in situ and can detect weak, readily reversible protein adsorption. For all monolayers, a panel of five proteins that spanned a range in molecular weight and pI were investigated.
(§2) Protein adsorption and cell attachment on four different monolayers was compared. Gold films were prepared by evaporation of titanium (1.5 nm) and then gold (40 nm) onto glass cover slips (0.20 mm, No. 2, Corning). […]
(§3) SPR was used to measure the adsorption of five proteins—fibrinogen, pepsin, lysozyme, insulin, and trypsin—to the four monolayers. […] The amount of protein that adsorbs irreversibly to the SAM is determined by comparing the shift in Θm before and after the SAM is exposed to protein. […]

Lysozyme = biological target: T1, Lysozyme (Homo sapiens, UniProt P61626); assay: SPR adsorption of protein on monolayers: lysozyme; conditions: protein 0.5 mg/ml in PBS pH 7.6, SAM on gold
T1 sequence (P61626 19-148): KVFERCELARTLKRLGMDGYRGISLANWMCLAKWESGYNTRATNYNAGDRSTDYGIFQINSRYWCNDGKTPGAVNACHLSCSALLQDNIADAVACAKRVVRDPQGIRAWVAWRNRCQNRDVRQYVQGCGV
Description: as §1, §2, §3

Pepsin = Pepsin (Homo sapiens, UniProt P0DJD8); assay: SPR adsorption of protein on monolayers: pepsin; conditions: protein 0.5 mg/ml in PBS pH 7.6, SAM on gold
Pepsin, sequence (P0DJD8 63-388): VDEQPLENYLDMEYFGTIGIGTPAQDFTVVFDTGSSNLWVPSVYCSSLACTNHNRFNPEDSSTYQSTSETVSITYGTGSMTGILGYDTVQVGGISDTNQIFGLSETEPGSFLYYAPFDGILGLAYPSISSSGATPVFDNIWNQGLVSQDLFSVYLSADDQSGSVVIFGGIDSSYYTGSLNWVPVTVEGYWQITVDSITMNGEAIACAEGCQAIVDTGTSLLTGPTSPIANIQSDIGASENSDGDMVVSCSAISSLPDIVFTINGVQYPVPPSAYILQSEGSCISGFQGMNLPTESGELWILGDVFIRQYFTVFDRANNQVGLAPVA
Description: as §1, §2, §3

Trypsin = assay: SPR adsorption of protein on monolayers: trypsin; conditions: protein 0.5 mg/ml in PBS pH 7.6, SAM on gold
Description: as §1, §2, §3

Fibrinogen = assay: SPR adsorption of protein on monolayers: fibrinogen; conditions: for amount of protein that remains adsorbed to the SAM (Fibrinogen): protein 0.5 mg/ml in PBS pH 7.6, SAM on gold
Description: as §1
Protein adsorption and cell attachment on four different monolayers was compared. Gold films were prepared by evaporation of titanium (1.5 nm) and then gold (40 nm) onto glass cover slips (0.20 mm, No. 2, Corning). The SAMs were prepared by immersing gold films of approximately 1 cm^2 in ethanolic solutions of alkanethiol (2 mM) for 9 hours. The SAMs were rinsed with ethanol and dried with nitrogen before use. As a control monolayer that is not inert, a SAM of hexadecanethiolate that presents hydrophobic methyl groups at the surface were used. Monolayers terminated in the tri(ethylene glycol) group were used as the current standard for inert surfaces. Each of the two additional monolayers presents the mannitol group and differs only in the length of alkyl chain to which the mannitol group is appended. [drawing 9]
SPR was used to measure the adsorption of five proteins—fibrinogen, pepsin, lysozyme, insulin, and trypsin—to the four monolayers. SPR measures changes in the refractive index of a solution near the interface with a gold film by measuring changes in the angle (ΔΘm) at which p-polarized light reflected from the glass/gold interface has a minimum in intensity. SAMs were mounted in a flow cell and experiments were performed by first flowing a phosphate buffered saline (PBS) through the cell for 5 minutes, then a solution of protein in the same buffer (0.5 mg/ml) for 5 minutes, and then PBS for 5 minutes. The rise in ΔΘm upon introduction of the protein solution has two contributions. […] The second contribution is due to the adsorption of protein to the SAM. The amount of protein that adsorbs irreversibly to the SAM is determined by comparing the shift in Θm before and after the SAM is exposed to protein. An increase in Θm of 0.1° corresponds to an increase in density of adsorbed protein of 1 ng/mm^2.

## CCCCCCCCCCCCCCCCS [HDT, hexadecanethiolate]
Insulin
  amount of protein that remains adsorbed to the SAM (Insulin): 688 pg/mm^2
Lysozyme
  amount of protein that remains adsorbed to the SAM (Lysozyme): 1,023 pg/mm^2
Pepsin
  amount of protein that remains adsorbed to the SAM (Pepsin): 1,337 pg/mm^2
Trypsin
  amount of protein that remains adsorbed to the SAM (Trypsin): 661 pg/mm^2
Fibrinogen; FIG. 1
  adsorption of fibrinogen to the SAM (in words): A complete monolayer of protein adsorbs
  change in Θm on adsorption of fibrinogen: 0.35 °
Fibrinogen
  amount of protein that remains adsorbed to the SAM (Fibrinogen): 3,432 pg/mm^2
Fibrinogen; listed as hexadecanethiolate
  amount of protein that remains adsorbed to the SAM (Fibrinogen): 3,500 pg/mm^2
